As a reminder, the GI50 is the concentration that inhibits growth by half.

The structures appear in SMILES notation. Where “and” joins values, the source holds several entries; their conditions need not be identical. Equal entries are not always repeated.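 Protocol summary: plate cells (96-well), add compound at 5 concentrations, incubate 48 h, interpolate endpoints linearly. Here, GI50 denotes the concentration required for 50% inhibition of growth.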 Calls of active or inactive are those of the source. Rule as the data show it: active = GI50 up to about 1.1 µM and inactive = higher.

Among the test systems are SK-MEL-2; MDA-N; A498; COLO 205; PC-3; SF-268; HCT-116; NCI-H460; UACC-62; SW-620; MOLT-4; U-251; K562; LOX IMVI; TK-10; OVCAR-8; SK-OV-3; HT-29; T47D; RXF 393.
Holding throughout (assay): DTP human tumour cell line panel, 48 h

Take `CC(C)(C)[Si](C)(C)OCC1OC(n2ccc(=O)[nH]c2=O)C(O[Si](C)(C)C(C)(C)C)[C@@]12O[C@H]2C(N)=O` (some centres not stated): the GI50 in the experiment on SK-MEL-2 is 16.3 µM (inactive); with MDA-N it was 5.37 µM (inactive); in the experiment with A498, > 10 µM (inactive); with COLO 205 it was 7.64 µM (inactive); with PC-3, 5.61 µM (inactive); in the experiment with SF-268 it was 9.2 µM (inactive). Moreover, the GI50 is 4.08 µM (inactive) in the experiment on HCT-116; 5.28 µM (inactive) in the experiment with NCI-H460; 18.7 µM (inactive) in the experiment on UACC-62; 6.01 µM (inactive) in the experiment on SW-620; 6.53 µM (inactive) in the experiment on MOLT-4; 4.28 µM (inactive) in the experiment with U-251. In addition, the GI50 is 7.38 µM (inactive) in the experiment with K562; 3.4 µM (inactive) with LOX IMVI; 20.2 µM (inactive) with TK-10; 5.11 µM (inactive) in the experiment on OVCAR-8; 19 µM (inactive) in the experiment with SK-OV-3; 3.39 µM (inactive) in the experiment with HT-29.

For `COc1ccc(CCCCl)c(C2=NCCc3ccccc32)c1`, the GI50 with T47D was 32.9 µM (inactive); in the experiment with SK-MEL-2, 61.7 µM (inactive); in the experiment on A498 it was > 100 µM (inactive); with COLO 205, 17.3 µM (inactive); in the experiment on PC-3, 19.5 µM (inactive); in the experiment with RXF 393, 56.9 µM (inactive). The GI50 in the experiment with SF-268 was 27.5 µM (inactive); in the experiment on HCT-116, 29.5 µM (inactive); with NCI-H460 it was 36.4 µM (inactive); with UACC-62 it was 84.5 µM (inactive); in the experiment with SW-620 it was 70.8 µM (inactive); with MOLT-4, 32.4 µM (inactive). Also, the GI50 in the experiment with U-251 is 9.75 µM (inactive); in the experiment with K562 it was 14.6 µM (inactive); in the experiment with TK-10, > 100 µM (inactive); in the experiment with OVCAR-8, 35.4 µM (inactive); in the experiment with SK-OV-3, > 100 µM (inactive); in the experiment with HT-29 it was 19.2 µM (inactive).

With `O=C1/C(=C/c2cccc([N+](=O)[O-])c2)Sc2scc(-c3ccc([N+](=O)[O-])cc3)[n+]21`, the GI50 with T47D is 44.9 µM (inactive); in the experiment with SK-MEL-2, 20.2 µM (inactive); in the experiment on MDA-N it was 24.5 µM (inactive); with COLO 205 it was 36.7 µM (inactive); with PC-3 it was 30.7 µM (inactive); in the experiment with HCT-116, 16 µM (inactive). In addition, the GI50 in the experiment on NCI-H460 was 11.4 µM (inactive); with UACC-62 it was 18.7 µM (inactive); in the experiment with SW-620 it was 30 µM (inactive); with MOLT-4, 21.1 µM (inactive); in the experiment with U-251, 27.2 µM (inactive); in the experiment on LOX IMVI, 18.5 µM (inactive). Further, the GI50 in the experiment with OVCAR-8 was 31.6 µM (inactive); with SK-OV-3 it was 69.5 µM (inactive); in the experiment on HT-29, 17.4 µM (inactive).

On to `CC(=O)OC(/C=C/c1ccccc1)P1(=O)N(CC(C)(C)C)[C@@H]2CCCC[C@H]2N1CC(C)(C)C` (some centres not stated), for which the GI50 in the experiment on SK-MEL-2 was 11.1 µM (inactive) and 5.96 µM (inactive); with MDA-N, 11 µM (inactive) and 7.73 µM (inactive); in the experiment with A498 it was 8.28 µM (inactive); in the experiment on COLO 205 it was 3.69 µM (inactive) and 3.6 µM (inactive); in the experiment on PC-3, 3.44 µM (inactive) and 3.03 µM (inactive); in the experiment with RXF 393, 3.24 µM (inactive) and 6.08 µM (inactive). In addition, the GI50 in the experiment with SF-268 is 10.9 µM (inactive) and 8.45 µM (inactive); in the experiment on HCT-116, 4.14 µM (inactive) and 3.53 µM (inactive); with NCI-H460, 6.24 µM (inactive) and 4.84 µM (inactive); in the experiment on UACC-62, 9.2 µM (inactive) and 8.99 µM (inactive); in the experiment on SW-620, 9.62 µM (inactive) and 5.27 µM (inactive); with MOLT-4, 3.63 µM (inactive) and 3.83 µM (inactive). Also, the GI50 in the experiment on U-251 is 8.81 µM (inactive) and 6.38 µM (inactive); with K562 it was 5.02 µM (inactive) and 4.68 µM (inactive); in the experiment with LOX IMVI, 11.2 µM (inactive) and 9.42 µM (inactive); with OVCAR-8, 6.56 µM (inactive) and 7.1 µM (inactive); with SK-OV-3 it was 15.2 µM (inactive) and 8.71 µM (inactive); in the experiment with HT-29, 4.25 µM (inactive) and 3.89 µM (inactive).

On to `Nc1nc(O)c(Br)c(-c2cccc([N+](=O)[O-])c2)n1`, for which the GI50 in the experiment with T47D was 91 µM (inactive); in the experiment with SK-MEL-2 it was > 100 µM (inactive); in the experiment with A498 it was > 100 µM (inactive); in the experiment on COLO 205 it was > 100 µM (inactive); in the experiment on PC-3, > 100 µM (inactive); with RXF 393, > 100 µM (inactive). For the same molecule, the GI50 is > 82.4 µM (inactive) in the experiment on SF-268; > 100 µM (inactive) in the experiment on HCT-116; > 81.8 µM (inactive) in the experiment on NCI-H460; > 51.9 µM (inactive) in the experiment with UACC-62; > 100 µM (inactive) in the experiment on SW-620; > 77.4 µM (inactive) in the experiment with MOLT-4. Besides, the GI50 was > 100 µM (inactive) with U-251; > 91.4 µM (inactive) with K562; > 100 µM (inactive) in the experiment on LOX IMVI; > 100 µM (inactive) with TK-10; 73.5 µM (inactive) with OVCAR-8; > 61.9 µM (inactive) with SK-OV-3. In the experiment with HT-29, the GI50 was > 100 µM (inactive).

On to `N#Cc1c(N)n(C2OC(CO)C(O)C2O)c2ncnc(N)c12` (configuration not stated), for which the GI50 in the experiment with T47D is 0.0403 µM (active); with SK-MEL-2, 0.0521 µM (active); in the experiment on A498 it was 0.175 µM (active); with COLO 205 it was 0.0329 µM (active); in the experiment on PC-3, 0.0245 µM (active); with RXF 393, 0.153 µM (active). Moreover, the GI50 is 0.0597 µM (active) in the experiment with SF-268; 0.0195 µM (active) with HCT-116; 0.288 µM (active) with NCI-H460; 0.0168 µM (active) in the experiment on UACC-62; 0.0228 µM (active) in the experiment on SW-620; 0.0248 µM (active) in the experiment with MOLT-4. Besides, the GI50 was 0.114 µM (active) with U-251; 0.048 µM (active) in the experiment with K562; 0.0165 µM (active) with LOX IMVI; 0.0211 µM (active) in the experiment on TK-10; 0.014 µM (active) in the experiment on OVCAR-8; 0.0649 µM (active) with SK-OV-3. In addition, in the experiment with HT-29, the GI50 is 0.0288 µM (active).

For the molecule `C[n+]1c2ccccc2c(N=[N+]=[N-])c2ccccc21`, the GI50 in the experiment on T47D is > 10 µM (inactive); in the experiment with SK-MEL-2, > 10 µM (inactive); in the experiment on A498, 6.3 µM (inactive); with COLO 205, 4.29 µM (inactive); in the experiment on PC-3, 5.37 µM (inactive); with RXF 393 it was > 10 µM (inactive). The GI50 is > 10 µM (inactive) in the experiment with SF-268; 4.22 µM (inactive) with HCT-116; 4.26 µM (inactive) with NCI-H460; 7.73 µM (inactive) in the experiment on UACC-62; 6.28 µM (inactive) in the experiment on SW-620; 4.69 µM (inactive) in the experiment on MOLT-4. Moreover, the GI50 in the experiment with U-251 is 9.93 µM (inactive); in the experiment with K562, 5.82 µM (inactive); in the experiment on LOX IMVI, 2.94 µM (inactive); in the experiment with TK-10 it was 6.97 µM (inactive); in the experiment with OVCAR-8, 6.46 µM (inactive); with SK-OV-3 it was > 10 µM (inactive). Further, the GI50 in the experiment with HT-29 was 3.93 µM (inactive).

As to `CC(=O)OC1CC[C@@]2(C)C(C1)CC(OC(C)=O)[C@@H]1C2CC(OC(C)=O)[C@]2(C)C(C(C)CC=C(c3ccc(Cl)cc3)c3ccc(Cl)cc3)CCC12` (some centres not stated), the GI50 in the experiment with T47D was 32.1 µM (inactive); with MDA-N, > 100 µM (inactive); in the experiment on COLO 205, > 100 µM (inactive); with PC-3, 23.6 µM (inactive); in the experiment on SF-268 it was 59.3 µM (inactive); in the experiment with HCT-116, 19.6 µM (inactive). Also, the GI50 was 26.3 µM (inactive) in the experiment on NCI-H460; 49.8 µM (inactive) in the experiment with SW-620; 20 µM (inactive) with MOLT-4; 60.5 µM (inactive) in the experiment with U-251; 15.2 µM (inactive) in the experiment with K562; 80.4 µM (inactive) in the experiment with TK-10. Also, the GI50 in the experiment on OVCAR-8 is 80.4 µM (inactive); with SK-OV-3, > 100 µM (inactive); with HT-29 it was 39 µM (inactive).

In the case of `COC(=O)C1C(O)C(C)C(=O)C(C)/C=C\C=C(C)C(=O)Nc2c(C)c(OC(C)=O)c3c(c2O)C(=O)C(C)=C2OCOC(=C23)C(C)=CC(C)(O)C(O)C(C)C1O` (configuration not stated), the GI50 in the experiment with T47D is 33.3 µM (inactive); in the experiment on SK-MEL-2, 25.2 µM (inactive); in the experiment on A498, 24.9 µM (inactive); in the experiment with COLO 205, 25.1 µM (inactive); with PC-3, 25.1 µM (inactive); with RXF 393 it was 31.1 µM (inactive). Moreover, the GI50 in the experiment with SF-268 was 99.8 µM (inactive); in the experiment with HCT-116 it was 24.9 µM (inactive); with NCI-H460, 32.7 µM (inactive); with UACC-62, 21.7 µM (inactive); with SW-620, 33.8 µM (inactive); in the experiment with MOLT-4, 29.4 µM (inactive). Further, the GI50 in the experiment on U-251 was 96.8 µM (inactive); in the experiment with K562, 19.1 µM (inactive); in the experiment on LOX IMVI it was 24.9 µM (inactive); in the experiment with OVCAR-8 it was 33.7 µM (inactive); in the experiment on SK-OV-3, > 100 µM (inactive); in the experiment with HT-29, 29.9 µM (inactive).

For `CC1=CC(=O)/C(=C/NC(N)=S)C(=O)O1`, the GI50 is 50.2 µM (inactive) with SK-MEL-2; > 100 µM (inactive) in the experiment with MDA-N; > 100 µM (inactive) in the experiment on COLO 205; > 100 µM (inactive) with PC-3; 1.05 µM (active) in the experiment with RXF 393; > 100 µM (inactive) in the experiment on SF-268. Further, the GI50 in the experiment with HCT-116 was > 100 µM (inactive); in the experiment on NCI-H460, > 100 µM (inactive); with UACC-62, > 100 µM (inactive); with SW-620 it was > 100 µM (inactive); in the experiment on MOLT-4, 53.7 µM (inactive); in the experiment with U-251 it was > 100 µM (inactive). The figures for the GI50 in the experiment on TK-10, in the experiment with OVCAR-8 and with SK-OV-3 were 10.1 µM (inactive), > 100 µM (inactive) and 43.2 µM (inactive), respectively.

Turning to `COc1ccc(C/C=C(\C)CCO)cc1`, the GI50 with SK-MEL-2, in the experiment with MDA-N, in the experiment with COLO 205, with PC-3, with RXF 393 and with SF-268 was > 100 µM (inactive) each time. For the same molecule, the GI50 in the experiment with HCT-116, with NCI-H460, in the experiment with UACC-62, with SW-620, in the experiment on MOLT-4 and in the experiment with U-251 was > 100 µM (inactive) in each case. Also, the GI50 with K562, in the experiment on LOX IMVI, in the experiment with TK-10, with OVCAR-8, in the experiment on SK-OV-3 and with HT-29 was > 100 µM (inactive) each time.

For the origin of these results see ChEMBL document CHEMBL1201862, “PubChem BioAssay data set” (2004).
